For this test, the system named is glycogen synthase. The test can be described thus: Glycogen Synthase (GS) Assay. It is filed as biochemical. The note with it: coupled pyruvate kinase/lactate dehydrogenase assay, absorbance at 340 nm; for EC50: compound concentration needed to give 50% maximum activation; for GS SC200: compound concentration needed to stimulate 200% of the enzyme activity. In a few lines:
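Glycogen synthase activity was coupled to pyruvate kinase/lactate dehydrogenase, using a substrate solution of glycogen, 2.67 mM UDP-glucose, PEP and NADH in glycylglycine pH 7.3. Compound solutions (0–300 µM) were tested ± 20 mM glucose 6-phosphate at RT, with A340 read every 3 min up to 15 min. Rates gave % stimulation, SC200 (200% activity) and EC50 (half-maximal activation).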

In general, EC50 refers to the midpoint of the concentration-response curve. For the compound `O=C(O)[C@@H]1CCS(=O)(=O)N1Cc1csc(COc2ccc(-c3cc(F)c(F)cc3F)cc2)n1` [Example 60, (S)-1,1-Dioxo-2-[2-(2′,4′,5′-trifluoro-biphenyl-4-yloxymethyl)-thiazol-4-ylmethyl]-1lambda*6*-isothiazolidine-3-carboxylic acid], a half-maximal response (EC50) required 2190 nM and the “GS SC200” value came out at 1.74 µM.
On to `COc1cc(F)c(F)cc1-c1ccc(OCc2nc(CN3[C@@H](C(=O)O)CCS3(=O)=O)cs2)cc1` [Example 61, (R)-2-[2-(4′,5′-Difluoro-2′-methoxy-biphenyl-4-yloxymethyl)-thiazol-4-ylmethyl]-1,1-dioxo-1lambda*6*-isothiazolidine-3-carboxylic acid], for which the EC50 is 1170 nM and the “GS SC200” value turned out to be 0.78 µM.
Consider `COc1cc(F)c(F)cc1-c1ccc(OCc2nc(CN3[C@H](C(=O)O)CCS3(=O)=O)cs2)cc1` [Example 62, (S)-2-[2-(4′,5′-Difluoro-2′-methoxy-biphenyl-4-yloxymethyl)-thiazol-4-ylmethyl]-1,1-dioxo-1lambda*6*-isothiazolidine-3-carboxylic acid], for which the EC50 amounted to 430 nM and the “GS SC200” value turned out to be 0.26 µM.
`COc1cc(F)c(F)cc1-c1ccc(OCc2cncc(CN3C(C(=O)O)CCS3(=O)=O)c2)cc1` (centres unmarked) [Example 63, 2-[5-(4′,5′-Difluoro-2′-methoxy-biphenyl-4-yloxymethyl)-pyridin-3-ylmethyl]-1,1-dioxo-1lambda*6*-isothiazolidine-3-carboxylic acid]: the 50% effective concentration (EC50) turned out to be 550 nM and the “GS SC200” value amounted to 0.01 µM.

The values are drawn from patent US20110136792A1, “NOVEL CARBOXYLIC ACID ANALOGS AS GLYCOGEN SYNTHASE ACTIVATORS” (priority 2009, published 2011).
